Patent US5059602A, “4-substituted dihydropyrido(4,3-d)pyrimidines as analgesics and topical antiinflammatory agents for the treatment of skin disorders” (Hoechst-Roussel Pharmaceuticals Inc., priority 1990, dated 1991)
Structures can show the parent of a compound that is named as a salt. Where two headings read alike, the source gives them in different places.

Experiments:
[1] = system: ear edema induced by topical application of TPA (phorbol 12-myristate acetate); test: TPA-Induced Ear Edema (TPAEE); assay type: in vivo, Female Swiss Webster mice; settings: for change in vivo at 10 µg/ear: 5 h, read-out: TPAEE
Protocol: TPA-Induced Ear Edema (TPAEE)
The purpose of this assay was to determine the ability of a topically-applied compound to prevent ear edema induced by topical application of TPA (phorbol 12-myristate acetate). Female Swiss Webster mice topically received TPA (10 μg/ear) on the right ear and vehicle on the left ear. The test compound (10 μg/ear) was applied to both ears. After five hours, the animals were sacrificed and an ear punch (4 mm) was taken from each ear. The difference in right and left ear punch weights for each animal was determined to assess activity. […] See Young, J. M. et al., J. Invest. Dermatol., 80 (1983), pp. 48-52.

[2] = system: 2-phenyl-1,4-benzoquinone-induced writhing; test: 2-phenyl-1,4-benzoquinone-induced writhing test (PQW); assay type: in vivo, mice; settings: Mus musculus, sc, read-out: PQW % Inhibition of writhing
[3] = system: mouse ear edema induced by topical application of arachidonic acid; test: Arachidonic Acid-Induced Ear Edema (AAEE); assay type: in vivo, Female Swiss Webster mice; settings: for AAEE: 1.0 mg (per ear), mouse
Protocol: Arachidonic Acid-Induced Ear Edema (AAEE)
The purpose of this assay was to determine the ability of a topically-applied compound to prevent mouse ear edema induced by topical application of arachidonic acid. Female Swiss Webster mice topically received vehicle or test compound (1.0 mg/ear) on both ears (10 μl on outer and inner ears). After 30 minutes, the right ear of all groups received arachidonic acid (4 mg/ear) and the left ear received vehicle alone. After an additional 1 hour, the mice were sacrificed and an ear punch (4 mm) was taken from each ear. The difference in right and left ear punch weights for each animal was determined to assess activity. […] See Young, J. M. et al., Invest. Dermatol., 80, (1983), pp 48-52.

[4] = system: naja naja (snake venom) phospholipase A2 -induced paw edema; test: Phospholipase A2-induced Paw Edema (PIPE); assay type: in vivo, male Wistar rats; settings: 0.1M; rat hindpaw, subplantar injection with PLA2 (3 units/paw), 2 hours
Protocol: Phospholipase A2 -induced Paw Edema (PIPE)
The ability of compounds to prevent naja naja (snake venom) phospholipase A2 -induced paw edema in male Wistar rats (100-125 g) was measured. PLA2 (3 units/paw) alone or with 0.1M of the test compound was injected in the subplantar region of the rat left hindpaw. Immediately subsequent to the injection and at two hours post administration the paw was immersed in a mercury bath, and paw displacement was measured on a recorder via a transducer. […] See Giessler, A. J. et al., Agents and Actions, Vol. 10, Trends in Inflammation Research (1981), p. 195.

[5] = 10 μg (per ear), mouse, five hours

| SMILES | change in vivo at 10 µg/ear [1, 5] | PIPE (difference in edema vs. control) [4] | also measured |
| --- | --- | --- | --- |
| C[C@]12CCC(=O)C=C1CC[C@@H]1[C@@H]2[C@@H](O)C[C@@]2(C)[C@H]1CC[C@]2(O)C(=O)CO [hydrocortisone, reference compound] | – | – | ED50 ([1]; standard, TPAEE): 47 μg/ear |
| Nc1ccncc1C(=NO)c1ccccc1 [(4-Amino-3-pyridinyl)phenylmethanone oxime hydrochloride] | -32% | – | – |
| CC(NCc1ccccc1)c1cnccc1N (stereo not drawn) [4-Amino-α-methyl-N-(phenylmethyl)-3-pyridinemethanamine] | -45% | – | inhibition in vivo at 20 mg/kg ([2]; 20 mg/kg, s.c.): 58% |
| Nc1ccncc1C(=NO)C1CCCCC1 [(4-Amino-3-pyridinyl)cyclohexylmethanone oxime hydrochloride] | -34% | – | – |
| CC(O)c1cnccc1NC(=O)C(C)(C)C (stereo not drawn) [α-Methyl-α-[4-(2,2-dimethylpropionamido)-3-pyridinyl]-methanol] | -46% | – | – |
| CCCCNCc1cnccc1NC(=O)C(C)(C)C.Cl.Cl [N-[3-[(Butylamino)methyl]-4-pyridinyl]-2,2-dimethylpropanamide dihydrochloride] | – | – | AAEE [3]: -45% |
| CC(=O)c1cnccc1NC(=O)C(C)(C)C [N-(3-Acetyl-4-pyridinyl)-2,2-dimethylpropanamide] | – | – | inhibition in vivo at 20 mg/kg ([2]; 20 mg/kg, s.c.): 34% |
| COc1ccc2c(c1)c(CC(=O)O)c(C)n2C(=O)c1ccc(Cl)cc1 [indomethacin, reference compound] | – | – | ED50 ([3]; standard, AAEE): 1.5 mg/ear |
| CC(C)(C)C(=O)Nc1ccncc1C(O)C1CCCCC1 (stereo not drawn) [α-Cyclohexyl-α-[4-(2,2-dimethylpropionamido)-3-pyridinyl]-methanol] | -55% | -35% | inhibition in vivo at 20 mg/kg ([2]; 20 mg/kg, s.c.): 32%; AAEE [3]: -52% |
| Nc1ccncc1C(N)c1ccccc1 (centres unmarked) [(4-Amino-3-pyridinyl)benzenemethanamine dihydrochloride] | – | -66% | – |
| Nc1ccncc1C(=O)C1CCCCC1 [(4-Amino-3-pyridinyl)cyclohexylmethanone hydrochloride] | -53% | – | – |
| Cl.Cl.Nc1ccncc1CNCc1ccccc1 [3-[(Phenylmethylamino)methyl]-4-pyridinamine dihydrochloride] | – | -51% | – |
| CC1c2cnccc2N=CN1Cc1ccccc1 (centres unmarked) [3,4-Dihydro-4-methyl-3-phenylmethylpyrido[4,3-d]pyrimidine dihydrochloride] | – | – | change in vivo at 10 µg/ear ([1]; Mus musculus): -55%; inhibition in vivo at 20 mg/kg [2]: 85% |
| C1=NC(C2CCCCC2)c2cnccc2N1.Cl.Cl (centres unmarked) [4-Cyclohexyl-1,4-dihydropyrido[4,3-d]pyrimidine dihydrochloride] | – | -44% | – |
| CC(NCc1ccccc1)c1cnccc1NC(=O)C(C)(C)C.Cl.Cl (centres unmarked) [N-[3-[1-(Phenylmethylamino)ethyl]-4-pyridinyl]-2,2-dimethylpropionamide dihydrochloride] | – | – | AAEE [3]: -44% |
| Cl.Cl.Nc1ccncc1C(N)C1CCCCC1 (centres unmarked) [(4-Amino-3-pyridinyl)cyclohexylmethanamine dihydrochloride] | -36% | -68% | AAEE [3]: -28% |
